Experiments:
Ba/F3 EML4-ALK WT tumors = assay: Ba/F3 EML4-ALK WT subcutaneous xenograft model; format: in vivo, SCID/Beige mice; details: 14 days
[1] = system: Ba/F3 CD74-ROS1 G2032R tumors; assay: Ba/F3 CD74-ROS1 G2032R subcutaneous xenograft model; format: in vivo, SCID/Beige mice; details: 11 days
[2] = system: Ba/F3 EML4-ALK L1152P cell line; assay: Cell proliferation assay (CellTiter-Glo); format: cell-based; details: Mus musculus, 72 hours
ARK5 [3] = biological target: T1, ARK5 (Homo sapiens, UniProt O60285); assay: Biochemical kinase assay (Reaction Biology); details: 10 μM ATP
T1 sequence (O60285 whole entry): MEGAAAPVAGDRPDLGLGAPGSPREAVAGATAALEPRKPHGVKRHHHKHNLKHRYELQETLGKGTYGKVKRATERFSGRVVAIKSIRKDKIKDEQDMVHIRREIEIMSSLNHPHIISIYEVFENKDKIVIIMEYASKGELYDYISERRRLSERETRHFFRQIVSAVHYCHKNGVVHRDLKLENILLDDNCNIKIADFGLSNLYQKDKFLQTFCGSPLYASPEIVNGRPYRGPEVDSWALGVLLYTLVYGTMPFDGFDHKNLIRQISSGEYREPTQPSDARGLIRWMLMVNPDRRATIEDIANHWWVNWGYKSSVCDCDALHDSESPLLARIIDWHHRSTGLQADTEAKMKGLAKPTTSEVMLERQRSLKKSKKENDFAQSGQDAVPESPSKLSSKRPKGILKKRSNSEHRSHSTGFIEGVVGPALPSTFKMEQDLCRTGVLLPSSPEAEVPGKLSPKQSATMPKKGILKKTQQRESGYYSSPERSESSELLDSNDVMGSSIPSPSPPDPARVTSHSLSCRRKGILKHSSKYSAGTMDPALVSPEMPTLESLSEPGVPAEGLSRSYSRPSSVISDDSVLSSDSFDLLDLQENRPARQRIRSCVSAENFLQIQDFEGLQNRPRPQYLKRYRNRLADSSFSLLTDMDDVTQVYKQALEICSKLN

DDR1 = biological target: T2, DDR1 (Homo sapiens, UniProt Q08345); assay: Biochemical kinase assay (Reaction Biology); details: 10 μM ATP
T2 construct: purchased Reaction Biology Corporation
T2 sequence (Q08345 19-913): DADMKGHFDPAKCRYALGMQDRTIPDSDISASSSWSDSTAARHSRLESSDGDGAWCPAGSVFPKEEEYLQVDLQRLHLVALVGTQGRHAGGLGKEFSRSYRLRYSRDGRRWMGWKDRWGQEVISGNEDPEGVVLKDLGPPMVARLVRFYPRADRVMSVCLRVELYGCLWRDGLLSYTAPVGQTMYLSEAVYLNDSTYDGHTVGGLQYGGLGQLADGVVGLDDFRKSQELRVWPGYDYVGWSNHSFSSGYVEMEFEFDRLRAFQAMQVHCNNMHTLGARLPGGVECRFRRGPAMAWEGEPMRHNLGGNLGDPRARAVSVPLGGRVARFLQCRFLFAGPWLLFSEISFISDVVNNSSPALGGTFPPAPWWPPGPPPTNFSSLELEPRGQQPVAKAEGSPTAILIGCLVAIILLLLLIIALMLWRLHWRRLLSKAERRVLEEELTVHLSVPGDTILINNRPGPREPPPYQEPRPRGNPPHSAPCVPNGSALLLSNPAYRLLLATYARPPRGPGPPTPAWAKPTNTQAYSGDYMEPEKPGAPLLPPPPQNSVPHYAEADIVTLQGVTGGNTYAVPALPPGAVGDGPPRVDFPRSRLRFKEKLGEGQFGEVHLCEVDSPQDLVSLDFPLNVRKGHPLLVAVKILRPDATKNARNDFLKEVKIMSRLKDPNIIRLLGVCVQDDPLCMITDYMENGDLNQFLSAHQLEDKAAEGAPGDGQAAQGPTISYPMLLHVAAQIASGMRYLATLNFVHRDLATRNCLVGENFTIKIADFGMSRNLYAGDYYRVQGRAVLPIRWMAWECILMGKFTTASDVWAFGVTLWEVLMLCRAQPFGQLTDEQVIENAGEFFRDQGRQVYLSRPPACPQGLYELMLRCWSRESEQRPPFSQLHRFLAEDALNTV

AXL = biological target: T3, AXL (Homo sapiens, UniProt P30530); assay: Biochemical kinase assay (Reaction Biology); details: 10 μM ATP
T3 construct: purchased Reaction Biology Corporation (contract assay)
T3 sequence (P30530 26-894): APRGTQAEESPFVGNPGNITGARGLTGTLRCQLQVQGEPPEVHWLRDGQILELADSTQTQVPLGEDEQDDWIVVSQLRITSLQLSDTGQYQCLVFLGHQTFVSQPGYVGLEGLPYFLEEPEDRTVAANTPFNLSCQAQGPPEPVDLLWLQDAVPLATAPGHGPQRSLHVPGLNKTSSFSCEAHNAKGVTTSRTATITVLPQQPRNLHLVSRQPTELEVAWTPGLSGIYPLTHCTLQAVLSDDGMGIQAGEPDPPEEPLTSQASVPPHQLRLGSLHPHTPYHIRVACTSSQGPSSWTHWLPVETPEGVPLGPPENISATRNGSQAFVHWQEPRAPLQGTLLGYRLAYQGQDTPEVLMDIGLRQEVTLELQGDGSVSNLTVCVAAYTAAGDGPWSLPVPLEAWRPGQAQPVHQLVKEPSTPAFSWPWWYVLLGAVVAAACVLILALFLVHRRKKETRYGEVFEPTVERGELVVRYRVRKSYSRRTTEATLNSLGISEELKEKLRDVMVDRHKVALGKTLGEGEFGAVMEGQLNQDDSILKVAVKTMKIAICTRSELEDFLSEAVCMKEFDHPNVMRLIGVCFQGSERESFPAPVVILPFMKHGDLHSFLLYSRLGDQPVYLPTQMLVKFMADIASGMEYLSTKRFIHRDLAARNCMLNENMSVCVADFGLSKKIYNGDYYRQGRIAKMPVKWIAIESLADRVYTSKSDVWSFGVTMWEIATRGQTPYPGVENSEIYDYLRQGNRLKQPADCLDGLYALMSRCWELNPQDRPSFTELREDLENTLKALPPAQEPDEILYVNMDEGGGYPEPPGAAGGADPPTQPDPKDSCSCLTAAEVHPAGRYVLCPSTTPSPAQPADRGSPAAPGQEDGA

[4] = system: Ba/F3 CD74-ROS1 G2032R cell line; assay: Cell proliferation assay (CellTiter-Glo); format: cell-based; details: Mus musculus, BaF3; 72 hours
Ba/F3 + IL3 parental = assay: Cell proliferation assay (CellTiter-Glo); format: cell-based; details: Mus musculus, BaF3; parental cells with IL3
ARK5 [5] = biological target: T1, ARK5; assay: KINOMEscan kinase binding assay (DiscoveRx)
Experimental: (§1) Kinase binding assays were performed at DiscoveRx using the general KINOMEscan Kd Protocol (Fabian, M. A. et al., “A small molecule-kinase interaction map for clinical kinase inhibitors,” Nat. Biotechnol. 2005, 23(3):329-36). For most assays, kinase-tagged T7 phage strains were prepared in an E. coli host derived from the BL21 strain. E. coli were grown to log-phase and infected with T7 phage and incubated with shaking at 32° C. until lysis. The lysates were centrifuged and filtered to remove cell debris. The remaining kinases were produced in HEK-293 cells and subsequently tagged with DNA for qPCR detection. […] The liganded beads were blocked with excess biotin and washed with blocking buffer (SeaBlock (Pierce), 1% BSA, 0.05% Tween 20, 1 mM DTT) to remove unbound ligand and to reduce nonspecific binding. […] All reactions were performed in polystyrene 96-well plates in a final volume of 0.135 mL. […] The kinase concentration in the eluates was measured by qPCR.
(§2) Binding constants (Kds) were calculated with a standard dose-response curve using the Hill equation: Response=Background+(Signal−Background)/(1+(Kd^Hill Slope/Dose^Hill Slope)) The Hill Slope was set to −1. Curves were fitted using a non-linear least square fit with the Levenberg-Marquardt algorithm.

FAK = FAK (Homo sapiens, UniProt Q05397); assay: KINOMEscan kinase binding assay (DiscoveRx)
Sequence of FAK (Q05397 whole entry): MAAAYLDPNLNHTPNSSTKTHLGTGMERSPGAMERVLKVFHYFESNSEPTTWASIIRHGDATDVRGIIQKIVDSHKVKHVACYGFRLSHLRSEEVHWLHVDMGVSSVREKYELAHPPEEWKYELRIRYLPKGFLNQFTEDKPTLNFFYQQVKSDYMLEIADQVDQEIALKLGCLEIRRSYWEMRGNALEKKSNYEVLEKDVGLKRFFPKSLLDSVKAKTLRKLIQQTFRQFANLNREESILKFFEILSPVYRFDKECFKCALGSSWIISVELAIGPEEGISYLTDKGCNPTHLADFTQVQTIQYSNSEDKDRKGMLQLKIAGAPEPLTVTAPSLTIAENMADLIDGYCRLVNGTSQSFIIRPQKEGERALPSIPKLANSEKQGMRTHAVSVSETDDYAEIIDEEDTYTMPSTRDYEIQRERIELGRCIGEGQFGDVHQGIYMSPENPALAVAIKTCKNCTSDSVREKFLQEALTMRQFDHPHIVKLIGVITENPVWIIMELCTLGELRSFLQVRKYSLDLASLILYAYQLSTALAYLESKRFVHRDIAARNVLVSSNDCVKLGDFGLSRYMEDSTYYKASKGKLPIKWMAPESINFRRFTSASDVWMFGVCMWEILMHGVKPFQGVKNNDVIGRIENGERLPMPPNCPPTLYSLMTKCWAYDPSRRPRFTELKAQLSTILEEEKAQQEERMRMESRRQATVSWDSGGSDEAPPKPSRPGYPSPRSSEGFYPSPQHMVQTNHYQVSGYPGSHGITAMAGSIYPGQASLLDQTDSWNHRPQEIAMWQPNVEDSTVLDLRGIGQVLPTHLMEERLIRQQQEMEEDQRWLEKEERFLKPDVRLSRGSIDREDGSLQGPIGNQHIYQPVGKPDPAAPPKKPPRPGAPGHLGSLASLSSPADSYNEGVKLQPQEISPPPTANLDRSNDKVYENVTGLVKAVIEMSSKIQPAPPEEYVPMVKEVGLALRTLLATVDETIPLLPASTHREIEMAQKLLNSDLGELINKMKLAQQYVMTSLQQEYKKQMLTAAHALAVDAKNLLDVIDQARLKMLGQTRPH
Experimental: as §1, §2

For C[C@H]1CNC(=O)c2cnn3ccc(nc23)N[C@H](C)c2cc(F)ccc2O1 [Compound 1, (7S,13R)-11-fluoro-7,13-dimethyl-6,7,13,14-tetrahydro-1,15-ethenopyrazolo[4,3-f][1,4,8,10]benzoxatriazacyclotridecin-4(5H)-one], the “Tumor growth inhibition (TGI)” value (Ba/F3 EML4-ALK WT tumors; 15 mg/kg/BID orally) was 74%, the “mice exhibiting tumor regression” value (Ba/F3 EML4-ALK WT tumors; 75 mg/kg BID orally) was 6 of 8 and the “tumor regression (REG)” value (Ba/F3 EML4-ALK WT tumors; 75 mg/kg BID orally) was 54%. For the same molecule, the “mice exhibiting tumor regression” value ([1]; 15 mg/kg/BID orally) was 2 of 8, the “mice exhibiting complete tumor regression” value ([1]; 75 mg/kg BID orally) was 8 of 8 and the “tumor regression (REG)” value ([1]; 75 mg/kg BID orally) was 100%. The IC50 [2] was 85 nM, the IC50 (ARK5 [3]) was 4.46 nM and the IC50 (DDR1) was 5.7 nM. For the same molecule, the IC50 (AXL) was 149 nM, the IC50 [4] was […] and the IC50 (Ba/F3 + IL3 parental) was 1240 nM. For the same molecule, the Kd (ARK5 [5]) was 3.7 nM and the Kd (FAK) was 27 nM.
